Series [1] deals with T1, E. coli GPP (EC-GPP, GppA) (Escherichia coli, UniProt P25552).
T1 construct: predicted 51 kDa; dimer
T1 sequence (P25552 1-494): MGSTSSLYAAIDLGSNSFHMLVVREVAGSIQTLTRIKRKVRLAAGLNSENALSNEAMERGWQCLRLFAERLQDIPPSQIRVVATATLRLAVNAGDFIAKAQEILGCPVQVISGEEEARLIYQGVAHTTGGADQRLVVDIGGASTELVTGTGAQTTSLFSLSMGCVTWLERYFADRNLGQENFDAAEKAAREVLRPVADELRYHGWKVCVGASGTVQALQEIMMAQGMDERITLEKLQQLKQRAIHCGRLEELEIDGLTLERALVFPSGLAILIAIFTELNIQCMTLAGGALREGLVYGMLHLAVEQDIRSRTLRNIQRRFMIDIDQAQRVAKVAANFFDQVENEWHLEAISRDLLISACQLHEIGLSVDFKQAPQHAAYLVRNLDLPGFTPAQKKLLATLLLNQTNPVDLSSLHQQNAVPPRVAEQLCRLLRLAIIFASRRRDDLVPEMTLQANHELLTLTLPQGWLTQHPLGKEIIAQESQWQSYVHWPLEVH
As to the kind of experiment: GTP hydrolysis, anion exchange chromatography. Type of series: biochemical. The note with it: 1 mM GTP, 1 mM MnCl2, 4 mM (NH4)2SO4, 50 mM Tris-HCl pH 7.4, 37°C.

In series [2] the target is T1, E. coli GPP (EC-GPP, GppA). As to the kind of experiment: inhibition of poly-P130 hydrolysis, EnzChek phosphate release. It counts as biochemical. The following applies: poly-P130 125 µM, 1 mM MnCl2, 25 mM KCl, 50 mM HEPES pH 6.8, 37°C. An excerpt: inhibition of poly-P130 hydrolysis, EnzChek phosphate release on E. coli GPP (EC-GPP, GppA)
A further series has as its target T2, E. coli PPX (EC-PPX) (Escherichia coli, UniProt P0AFL6).
T2 construct: predicted 53 kDa; dimer
T2 sequence (P0AFL6 2-513): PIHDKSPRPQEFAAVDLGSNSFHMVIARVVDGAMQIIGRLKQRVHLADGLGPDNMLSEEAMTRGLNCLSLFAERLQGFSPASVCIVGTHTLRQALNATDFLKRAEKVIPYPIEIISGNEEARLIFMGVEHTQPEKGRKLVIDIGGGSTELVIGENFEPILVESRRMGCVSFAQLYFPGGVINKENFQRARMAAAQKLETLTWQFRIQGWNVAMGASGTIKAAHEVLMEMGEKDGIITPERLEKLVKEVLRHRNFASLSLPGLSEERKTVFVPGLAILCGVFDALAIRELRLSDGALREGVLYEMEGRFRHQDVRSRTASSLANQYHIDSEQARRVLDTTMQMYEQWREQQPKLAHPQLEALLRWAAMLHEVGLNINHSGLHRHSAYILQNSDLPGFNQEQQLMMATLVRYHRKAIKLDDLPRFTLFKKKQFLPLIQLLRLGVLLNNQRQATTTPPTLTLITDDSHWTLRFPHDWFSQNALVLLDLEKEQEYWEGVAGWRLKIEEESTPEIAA
The description is as above. It counts as biochemical. The note with it: poly-P130 125 µM, 1 mM MnCl2, 25 mM KCl, 50 mM HEPES pH 6.8, 37°C. An excerpt: inhibition of poly-P130 hydrolysis, EnzChek phosphate release on E. coli PPX (EC-PPX)

In series [3] the target is Rv1026 protein from Mycobacterium tuberculosis H37Rv (Mycobacterium tuberculosis H37Rv). The series can be described thus: SEC + other: dynamic light scattering.
Series [4] deals with the molecule itself. As to the kind of experiment: SEC + other: dynamic light scattering; Superdex 200 gel filtration calibrated with protein standards; light scattering of 2, 1 and 0.5 mg/ml protein in 25 mM Tris-HCl pH 7.4, 25 mM NaCl (DynaPro Plate Reader Plus); self-association, dimer. Background: Size exclusion chromatography separates by hydrodynamic size, large species first.

Series [5] concerns the molecule itself. The series can be described thus: SEC + other: dynamic light scattering.

From article PMC3411833, “The Two PPX-GppA Homologues from Mycobacterium tuberculosis Have Distinct Biochemical Activities” (PLoS ONE, 2012) come the findings set out here.

In the case of `Nc1nc2c(ncn2[C@@H]2O[C@H](COP(=O)(O)OP(=O)(O)OP(=O)(O)O)[C@@H](O)[C@H]2O)c(=O)[nH]1` [GTP], in series [1], the “GTP hydrolysis, anion exchange chromatography” value was “the E. coli GPP protein was a highly efficient GTPase and a modest ATPase”.

As for `Nc1nc2c(ncn2[C@@H]2O[C@H](COP(=O)(O)OP(=O)(O)O)[C@@H](OP(=O)(O)OP(=O)(O)O)[C@H]2O)c(=O)[nH]1` [ppGpp, guanosine 3′,5′-bisdiphosphate], the figures for the “Exopolyphosphatase activities / +1 mM ppGpp / (% decrease) / ATPase activities” value (in series [2]; on E. coli PPX (EC-PPX)) were 6.0±0.5% and 10.8±1.2%, respectively.

As for `Nc1nc2c(ncn2[C@@H]2O[C@H](COP(=O)(O)OP(=O)(O)OP(=O)(O)O)[C@@H](OP(=O)(O)OP(=O)(O)O)[C@H]2O)c(=O)[nH]1` [pppGpp, guanosine 5′-triphosphate, 3′-diphosphate], the “Exopolyphosphatase activities / +1 mM pppGpp / (% decrease) / ATPase activities” value in series [2] came out at 29.5±4.4%; at E. coli PPX (EC-PPX), 89.6±20.1%.

Regarding “Rv1026 protein from Mycobacterium tuberculosis H37Rv (enzyme)”, the stoichiometry N in series [3] was 2.

B1: E. coli exopolyphosphatase (PPX) (enzyme, E. coli BL21 (DE3), UniProt P0AFL6 1-513, looked up)
chain: MPIHDKSPRPQEFAAVDLGSNSFHMVIARVVDGAMQIIGRLKQRVHLADGLGPDNMLSEEAMTRGLNCLSLFAERLQGFSPASVCIVGTHTLRQALNATDFLKRAEKVIPYPIEIISGNEEARLIFMGVEHTQPEKGRKLVIDIGGGSTELVIGENFEPILVESRRMGCVSFAQLYFPGGVINKENFQRARMAAAQKLETLTWQFRIQGWNVAMGASGTIKAAHEVLMEMGEKDGIITPERLEKLVKEVLRHRNFASLSLPGLSEERKTVFVPGLAILCGVFDALAIRELRLSDGALREGVLYEMEGRFRHQDVRSRTASSLANQYHIDSEQARRVLDTTMQMYEQWREQQPKLAHPQLEALLRWAAMLHEVGLNINHSGLHRHSAYILQNSDLPGFNQEQQLMMATLVRYHRKAIKLDDLPRFTLFKKKQFLPLIQLLRLGVLLNNQRQATTTPPTLTLITDDSHWTLRFPHDWFSQNALVLLDLEKEQEYWEGVAGWRLKIEEESTPEIAA
notes: also called EC-PPX; E. coli PPX; source: E. coli BL21(DE3), purified (HiTrap Chelating HP, eluted with 60 mM imidazole)
As for B1, in series [4], the “stoichiometry N” value worked out at 2.

B2: Rv0496 (MTB-PPX1) protein from Mycobacterium tuberculosis H37Rv (enzyme)
chain: MRLGVLDVGSNTVHLLVVDAHRGGHPTPMSSTKATLRLAEATDSSGKITKRGADKLISTIDEFAKIAISSGCAELMAFATSAVRDAENSEDVLSRVRKETGVELQALRGEDESRLTFLAVRRWYGWSAGRILNLDIGGGSLEVSSGVDEEPEIALSLPLGAGRLTREWLPDDPPGRRRVAMLRDWLDAELAEPSVTVLEAGSPDLAVATSKTFRSLARLTGAAPSMAGPRVKRTLTANGLRQLIAFISRMTAVDRAELEGVSADRAPQIVAGALVAEASMRALSIEAVEICPWALREGLILRKLDSEADGTALIESSSVHTSVRAVGGQPADRNAANRSRGSKP
B2: in series [5], the “stoichiometry N” value was 2.

B3: E. coli guanosine pentaphosphate 5'-phosphohydrolase (GPP, GppA) (enzyme, E. coli BL21 (DE3), UniProt P25552 1-494, looked up)
chain: MGSTSSLYAAIDLGSNSFHMLVVREVAGSIQTLTRIKRKVRLAAGLNSENALSNEAMERGWQCLRLFAERLQDIPPSQIRVVATATLRLAVNAGDFIAKAQEILGCPVQVISGEEEARLIYQGVAHTTGGADQRLVVDIGGASTELVTGTGAQTTSLFSLSMGCVTWLERYFADRNLGQENFDAAEKAAREVLRPVADELRYHGWKVCVGASGTVQALQEIMMAQGMDERITLEKLQQLKQRAIHCGRLEELEIDGLTLERALVFPSGLAILIAIFTELNIQCMTLAGGALREGLVYGMLHLAVEQDIRSRTLRNIQRRFMIDIDQAQRVAKVAANFFDQVENEWHLEAISRDLLISACQLHEIGLSVDFKQAPQHAAYLVRNLDLPGFTPAQKKLLATLLLNQTNPVDLSSLHQQNAVPPRVAEQLCRLLRLAIIFASRRRDDLVPEMTLQANHELLTLTLPQGWLTQHPLGKEIIAQESQWQSYVHWPLEVH
notes: also called EC-GPP; E. coli GPP; source: E. coli BL21(DE3), purified (HiTrap Chelating HP, eluted with 60 mM imidazole)
With B3, in series [4], the “stoichiometry N” value was 2.

What is called stoichiometry N is a count of units in the complex or per binding partner.
